The values that follow come from patent US6607890B1, “Mismatch-recognizing molecules” (Japan Science and Technology Corporation, priority 1999, dated 2003).

What all share (type): binding
In one test the test system is normal G-C base pair. Put plainly: DNase I footprinting titration on 5′-32P labeled 52-mer double-stranded DNA, normal G-C site. The following applies: concentration increased from 0 up to 500 μM, FIG. 1. The method, then:
(§1) Accordingly, it was examined whether such a compound having two 1,8-naphthylidien moieties can be incorporated into chains of a nucleic acid by constructing a paring with each mismatched guanine in a case when mismatched base pairing of guanine—guanine exists in a double-stranded nucleic acid. 52-mer double-stranded DNA labeled with 5′-^32P having a GC base pair, a GA mismatched base pair and a GG mismatched base pair in the double-stranded DNA was prepared. The partial sequences of the corresponding parts are illustrated as follows.
(§2) Using this double-stranded DNA, an inhibited position of DNA cleavage by DNase I was analyzed by means of DNase I (DNA hydrolase) footprinting titration in the presence of the compound of the formula (III) at various concentrations.
Cleavage by DNase I (DNA hydrolase) is shown in black and inhibition in a position of the cleavage by DNase is shown in white.
(§3) A double-stranded DNA was prepared by hybridizing 5′-end ^32P labeled 52-mer DNA to form mismatched base pairs with G-G and G-A (refer to the right figures in FIG. 1).
Various concentrations of the compound obtained in example 1 were added to the double-stranded DNA, and analyzed by DNA footprinting using DNase I. […]

The test system of a further test is G-G mismatched base pair. Briefly: DNase I footprinting titration on 5′-32P labeled 52-mer double-stranded DNA, G-G mismatched site. As for the experimental part: as §1, §2
(§4) FIG. 2 is a graph showing a relationship between an intensity of cleaved band and a concentration of added naphthyriidine in FIG. 1. […] In FIG. 2, the abscissa indicates concentration (M) of the compound of the formula (III) added. In FIG. 2, black circle (●) in the graph indicates mismatched site of G-G, and black triangle (▴) indicates mismatched site of G-A.
as §3
(§5) Various concentrations of the compound obtained in example 1 were added to the double-stranded DNA, and analyzed by DNA footprinting using DNase I.
(§6) The double-stranded DNA (<4 nM strand concentration) was incubated with the compound obtained in example 1, which was adjusted to various concentrations with tris-HCl buffer (10 mM, pH 7.6) containing NaCl (100 mM) and MgCl2 (5 mM), at 4° C. for 12 hours. 0.2 U DNase I (DNA hydrolase) was added thereto and incubated at 25° C. for […]. DNA was recovered by mans of ethanol precipitation and electrophoresed using a gel containing 12% polyacrylamide and 7M urea.

The next test concerns G-A mismatched base pair. Put plainly: DNase I footprinting titration on 5′-32P labeled 52-mer double-stranded DNA, G-A mismatched site. The method, then: as §1, §2, §4, §3, §5, §6
The mark [1] stands for this setting: calculated from DNase I footprinting titration (FIG. 2).

For the compound `Cc1ccc2ccc(NC(=O)CCNCCC(=O)Nc3ccc4ccc(C)nc4n3)nc2n1` [formula (III), dinaphthylidinamide], in the test on normal G-C base pair, the “effect on DNase I cleavage at the normal G-C base pairing” value is “cleavage by DNase I occurs”. In the test on G-G mismatched base pair (DNase I cleavage, FIG. 2), the “concentration at which the cleavage in the G-G mismatched site is inhibited almost completely” value is on record as ≥ 10^−5 M. In the test with G-G mismatched base pair (G-G versus G-A mismatch), the “ratio of both binding constants [(Ka (GGmis))/(Ka (GAmis))]” value is listed as 696. Besides, the “binding constant to the mismatched base G-G [Ka (GGmis)]” value in the test on G-G mismatched base pair (setting [1]) was 1.13e+07 M⁻¹. Moreover, the “concentration from which the inhibitory action against cleavage initiates in the G-A mismatched site” value in the test with G-A mismatched base pair (DNase I cleavage, FIG. 2) is given as “approximately 10^−6 M”. Further, the “inhibition of the cleavage in the G-A mismatched site” value in the test on G-A mismatched base pair (at around (500 μM) compound) is reported as “about 90%”. In addition, the “binding constant to the mismatched base G-A [Ka (GAmis)]” value in the test on G-A mismatched base pair (setting [1]) is 16300 M⁻¹.
